Laboratory results from patent US3962443A, “Antibacterial pharmaceutical compositions and processes for preparation thereof” (Dainippon Pharmaceutical Co., Ltd., priority 1972, dated 1976).
In brackets after ≈: the same amount, converted by molar mass. Like-named read-outs stand apart in the source and are kept apart here.

Experiments:
[1] = system: Pseudomonas aeruginosa Tsuchijima; test: In vitro antibacterial activity, MIC by serial dilution; assay type: cell-based; settings: nutrient broth pH 7.0, 37°C, 48 hours
Method: (§1) The minimum inhibitory concentration (MIC) was determined by the well
(§2) known serial dilution method.
(§3) Experimental conditions:?
(§4) Medium: nutrient broth, pH 7.0 (5 ml/tube)
(§5) Inoculum: 1 drop of 1 : 10^5 dilution of an overnight broth culture
(§6) Incubation temperature and time: 37°C for 48 hours

[2] = system: Staphylococcus aureus Terajima; test: as above; assay type: cell-based; settings: nutrient broth pH 7.0, 37°C, 48 hours
Method: as §1, §2, §3, §4, §5, §6

Escherichia coli K-12 = test: as above; assay type: cell-based
Method: as §1, §2, §3, §4, §5, §6

[3] = system: Pseudomonas aeruginosa No. 12; test: In vivo efficacy against systemic infection with Pseudomonas aeruginosa in mice; parameters: species or system mice (ddY-S); settings: for ED50: twice, about 5 minutes and 6 hours after infection
Method: (§7) In the Tables II to IV, the ED50 and ID50 values were calculated in accordance with the Behrens-Kaerber method [Arch. Exp. Path. Pharm., 162, 480 (1931)]. The compound numbers are those described in the Examples and compounds PA and AT-616 are as follows:
(§8) total number. 0/8 means that all of 8 mice died. 8/8 means that all 8 mic
(§9) Mice: male mice (ddY-S) weighing 20 g approximately

[4] = system: Salmonella typhimurium S-9; test: In vivo efficacy against systemic infection with Salmonella typhimurium in mice; parameters: species or system mice (ddY-S); settings: for ED50: Salmonella enterica, TYPHIMURIUM, 336 h, twice a day for 4 days, 14 days observation; for number of the survived/the total number: 14 days
Method: as §7
The numerical figures in the table show the number of the survived/the
as §8
Experimental conditions.
Organism: Salmonella typhimurium S-9
as §9
Infection: Intraperitoneal infection with 50 to 100 LD50 of a
bacterial suspension in nutrient broth (about 10^5 cells/mouse)
Medication: twice a day for 4 days from the day of infection.
Drug: an alkaline solution for parenteral administration and suspension i
0.2% CMC for oral administration
i.e.: intraperitoneal administration
p.o.: oral administration

[5] = system: Mycobacterium tuberculosis H37 Rv; test: Antituberculous activity in vitro, MIC by serial dilution; assay type: cell-based; settings: H37RV, 504 h, Kirchner medium with 0.2% bovine albumin, pH 7.0, 37°C, 3 weeks
Method: (§10) The minimum inhibitory concentration (MIC:μg/ml) was determined by the
(§11) well known serial dilution method.
as §3
(§12) Medium: Kirchner medium containing 0.2% bovine albumin, pH 7.0 (3 ml/tube
(§13) Inoculum: 1 drop of 1:10^2 dilution of a culture in Modified Kirchner
(§14) medium for 2 weeks (OD=0.3) per tube
(§15) Incubation temp. and time: 37°C for 3 weeks

[6] = system: Mycobacterium tuberculosis Kurono; test: as above; assay type: cell-based; settings: 504 h, Kirchner medium with 0.2% bovine albumin, pH 7.0, 37°C, 3 weeks
Method: as §10, §11, §3, §12, §13, §14, §15

[7] = Escherichia coli, K12, 48 h, pH 7
[8] = NO.12, 168 h, ip, 50 mg/kg, 7 days, read-out: number of the survival/the total number (converted)
[9] = NO.12, 168 h, po, 7 days, read-out: number of the survival/the total number (converted)
[10] = K12, Escherichia coli K-12, nutrient broth pH 7.0, 37°C, 48 hours, read-out: MIC
[11] = NO.12, 168 h, ip, 7 days, read-out: number of the survival/the total number (converted)
[12] = NO.12, 168 h, ip, 100 mg/kg, 7 days, read-out: number of the survival/the total number (converted)

SMILES | MIC [1] | MIC [2] | responders at 50 mg/kg [3, 8] | ED50 ([3]; NO.12, 168 h, ip, 7 days) | responders at 200 mg/kg [3, 9] | ED50 ([3]; NO.12, 168 h, po, 7 days) | MIC (Escherichia coli K-12; [10]) | responders at 25 mg/kg [3, 11] | ED50 ([4]; ip) | ED50 ([4]; po) | number of the survived/the total number ([4]; po, 25 mg/kg) | number of the survived/the total number ([4]; po, 50 mg/kg) | also measured
CCCn1cc(C(=O)O)c(=O)c2cnc(N3CCNCC3)nc21 [Compound 2, 5,8-Dihydro-2-(1-piperazinyl)-8-n-propyl-5-oxopyrido[2,3-d]pyrimidine-6-carboxylic acid] | 30 µg/mL (≈ 94.5 µM) | 100 µg/mL (≈ 315 µM) | 100% | 35.4 mg/kg | 62.5% | < 200 mg/kg | – | – | – | – | – | – | MIC (Escherichia coli K-12; [7]): 3 µg/mL (≈ 9.45 µM)
Cl.O=C(O)c1cn(CCCl)c2nc(N3CCNCC3)ncc2c1=O [Compound 63, 8-(2-chloroethyl)-5,8-dihydro-2-(1-piperazinyl)-5-oxopyrido[2,3-d]pyrimidine-6-carboxylic acid hydrochloride] | 30 µg/mL | 30 µg/mL | 100% | < 17.7 mg/kg | – | – | 3 µg/mL | 100% | – | – | – | – | –
C=CCn1cc(C(=O)O)c(=O)c2cnc(N3CCNCC3)nc21 [Compound 50] | 30 µg/mL (≈ 95.1 µM) | 100 µg/mL (≈ 317 µM) | 87.5% | 35 mg/kg | – | – | 10 µg/mL (≈ 31.7 µM) | 12.5% | – | – | – | – | responders at 100 mg/kg [3, 12]: 100%
CCN1CCN(c2ncc3c(=O)c(C(=O)O)cn(CC)c3n2)CC1 [Compound 21, 2-(4-ethyl-1-piperazinyl)-5,8-dihydro-8-ethyl-5-oxopyrido[2,3-d]pyrimidine-6-carboxylic acid] | 100 µg/mL (≈ 302 µM) | 30 µg/mL (≈ 90.5 µM) | 0% | ~100 mg/kg | 50% | ~200 mg/kg | 1 µg/mL (≈ 3.02 µM) | – | < 17.7 mg/kg | < 17.7 mg/kg | 8/8 | – | number of the survived/the total number ([4]; ip, 25 mg/kg): 8/8; responders at 100 mg/kg [3, 12]: 50%
CCn1cc(C(=O)O)c(=O)c2cnc(N3CCN(CC(C)O)CC3)nc21 (centres unmarked) [Compound 4, 5,8-Dihydro-8-ethyl-2-[4-(2-hydroxy-n-propyl)-1-piperazinyl]-5-oxopyrido[2,3-d]pyrimidine-6-carboxylic acid] | 100 µg/mL (≈ 277 µM) | 30 µg/mL (≈ 83 µM) | – | – | – | – | 3 µg/mL (≈ 8.3 µM) | – | < 35.4 mg/kg | < 35.4 mg/kg | – | 8/8 | number of the survived/the total number ([4]; ip, 50 mg/kg): 8/8
CCn1cc(C(=O)O)c(=O)c2cnc(N3CCN(Cc4ccc(OC)cc4)CC3)nc21 [Compound 17] | 100 µg/mL (≈ 236 µM) | 10 µg/mL (≈ 23.6 µM) | – | – | – | – | 3 µg/mL (≈ 7.08 µM) | – | – | – | – | – | –
CCn1cc(C(=O)O)c(=O)c2cnc(N3CCC(O)C3)nc21 (centres unmarked) [Compound AT-616, reference compound] | 100 µg/mL (≈ 329 µM) | 30 µg/mL (≈ 98.6 µM) | – | > 100 mg/kg | 12.5% | > 200 mg/kg | 1 µg/mL (≈ 3.29 µM) | – | – | – | – | – | responders at 100 mg/kg [3, 12]: 37.5%
CCn1cc(C(=O)O)c(=O)c2cnc(N3CCN(c4ccccc4)CC3)nc21 [Compound 6, 5,8-Dihydro-8-ethyl-2-(4-phenyl-1-piperazinyl)-5-oxoprido[2,3-d]pyrimidine-6-carboxylic acid] | – | – | – | – | – | – | – | – | – | – | – | – | MIC [5]: 6.3 µg/mL (≈ 16.6 µM); MIC [6]: 6.3 µg/mL (≈ 16.6 µM)
O=C(O)c1cn(Cc2ccccc2)c2nc(N3CCNCC3)ncc2c1=O [Compound 33, 8-Benzyl-5,8-dihydro-2-(1-piperazinyl)-5-oxopyrido [2,3-d]pyrimidine-6-carboxylic acid] | 10 µg/mL (≈ 27.4 µM) | 100 µg/mL (≈ 274 µM) | – | < 17.7 mg/kg | – | – | 3 µg/mL (≈ 8.21 µM) | 100% | 12.5 mg/kg | – | – | – | number of the survived/the total number ([4]; ip, 6.3 mg/kg): 1/8; number of the survived/the total number ([4]; ip, 12.5 mg/kg): 4/8; number of the survived/the total number ([4]; ip, 25 mg/kg): 7/8
CCn1cc(C(=O)O)c(=O)c2cnc(N3CCNCC3)nc21 [Compound 1, 5,8-Dihydro-8-ethyl-2-(1-piperazinyl)-5-oxopyrido[2,3-d]pyrimidine-6-carboxylic acid] | 10 µg/mL (≈ 33 µM) | 30 µg/mL (≈ 98.9 µM) | – | 10.5 mg/kg | – | 100 mg/kg | – | – | 6.3 mg/kg | 12.5 mg/kg | 8/8 | 8/8 | number of the survived/the total number ([4]; ip, 6.3 mg/kg): 4/8; number of the survived/the total number ([4]; ip, 12.5 mg/kg): 8/8; number of the survived/the total number ([4]; ip, 25 mg/kg): 8/8; number of the survived/the total number ([4]; po, 6.3 mg/kg): 0/8; number of the survived/the total number ([4]; po, 12.5 mg/kg): 4/8; MIC (Escherichia coli K-12; [7]): 1 µg/mL (≈ 3.3 µM); responders at 3.1 mg/kg ([3]; NO.12, ip, 168 h, read-out: number of the survival/the total number, ip, 3.1 mg/kg, 7 days): 12.5%; responders at 6.3 mg/kg ([3]; NO.12, ip, 168 h, read-out: number of the survival/the total number, ip, 6.3 mg/kg, 7 days): 25%; responders at 12.5 mg/kg ([3]; NO.12, ip, 168 h, read-out: number of the survival/the total number, ip, 12.5 mg/kg, 7 days): 50%; responders at 50 mg/kg ([3]; NO.12, ip, 168 h, read-out: number of the survival/the total number, ip, 50 mg/kg, 7 days): 100%; responders at 50 mg/kg ([3]; NO.12, po, 168 h, read-out: number of the survival/the total number, po, 50 mg/kg, 7 days): 0%; responders at 100 mg/kg ([3]; NO.12, po, 168 h, read-out: number of the survival/the total number, po, 100 mg/kg, 7 days): 50%
C#CCN1CCN(c2ncc3c(=O)c(C(=O)O)cn(CC)c3n2)CC1 [Compound 38] | > 100 µg/mL | 10 µg/mL (≈ 29.3 µM) | – | – | – | – | 3 µg/mL (≈ 8.79 µM) | – | – | 21 mg/kg | 6/8 | 8/8 | number of the survived/the total number ([4]; po, 12.5 mg/kg): 0/8
C=Cn1cc(C(=O)O)c(=O)c2cnc(N3CCNCC3)nc21.Cl [Compound 54, 5,8-Dihydro-2-(1-piperazinyl)-8-vinyl-5-oxopyrido[2,3-d] pyrimidine-6-carboxylic acid hydrochloride] | 3 µg/mL | > 100 µg/mL | – | – | – | – | 3 µg/mL | – | – | 17.7 mg/kg | 6/8 | 8/8 | number of the survived/the total number ([4]; po, 12.5 mg/kg): 2/8
CCn1cc(C(=O)O)c(=O)c2cnc(N3CCNCC3)nc21.Cl [Compound 11, 5,8-Dihydro-8-ethyl-2-(1-piperazinyl)-5-oxopyrido[2,3-d]pyrimidine-6-carboxylic acid hydrochloride] | 10 µg/mL | 30 µg/mL | – | < 17.7 mg/kg | 100% | < 100 mg/kg | 3 µg/mL | 100% | – | < 35.4 mg/kg | – | 8/8 | responders at 100 mg/kg ([3]; NO.12, 168 h, po, 100 mg/kg, 7 days, read-out: number of the survival/the total number (converted)): 87.5%
